How the values were obtained:
[1] = in vivo
Protocol: The diversity of models between cattle, dogs and humans and sheep and pigs reflects differences in known physiology. In each species the tracer is injected into compartment 1 which, based on size (volume and mass), is similar to plasma and extracellular water space. Compartment 1 was the sampling compartment and the compartment from which the steady state calculations were initiated. All models for each species can be resolved by sampling only plasma, except in sheep--the model in FIG. 4 required the sampling of plasma and urine. However, the sheep model can be resolved from plasma kinetics of 3-methylhistidine if the rate of exit from compartment 1 is fixed. From the steady state calculations the de novo production of 3-methylhistidine was obtained into compartment 3 for humans, cattle and dogs and into compartment 2 for sheep and pigs. The de novo production of 3-methylhistidine could be placed as an entry into compartment 2 and an identical rate calculated. The compartment identity of compartment 2 and 3 is intracellular pools of 3-methylhistidine. The metabolic form of 3-methylhistidine in these compartments may not be identical nor is the identity of compartment 2 or 3 for one species the same identity for another species (i.e., cattle vs. sheep). The models also depict differences in the route by which 3-methylhistidine exits the system. […]

[2] = set-up: species or system human; details: in vivo
Excerpt: Normal volunteers with no evidence or history of diabetes mellitus or of cardiac, liver, renal or pulmonary diseases were studied. The subjects consisted of 3 males and 1 female, ranging in age from 31 to 37 years, in body weight from 47 to 92 kg, and in body mass index (BMI) from 19.2 to 25.5. The purpose and possible risks of the study were explained to all subjects, and their voluntary written consent was obtained. The study protocol was approved by the Committee for the Protection of Human Subjects of the Institutional Review Board at Vanderbilt University School of Medicine. All studies were performed at the Clinical Research Center (CRC). Subjects were placed on balanced weight-maintenance diets for at least one week before the start of the study. Meat was excluded from the subjects' diets for three days before the study and during the study.
All studies were performed after a 10-12 hour overnight fast. On the morning of the experiment (6.30 to 7.00 hours), an 18-gauge Angiocatheter™ (Benton Dickinson, Sandy, Utah) was placed in a superficial hand vein of the nondominant arm for blood sampling. The hand was heated to 55° C. to ensure complete arterialization (Abumrad, N.N. et al., "Use of a heated superficial hand vein as an alternative site for the measurement of amino acid concentrations and for the study of glucose and alanine kinetics in man," Metabolism (1981) 30:936-940). In addition, a 16-gauge angiocatheter was inserted into the contralateral forearm vein for the infusion of L-3-[methyl-^2 H3 ]-histidine (MSD Isotopes, Montreal, Canada). Finally, another catheter was threaded retrograde into the brachial vein of the dominant arm and used for sampling of the forearm tissue.
Each study was four days in duration. Starting at t=0 (8.00 hours), subjects were administered a bolus infusion of L-3-[methyl^2 H3 ]-histidine (D3 -3-methylhistidine) at 0.13 μmol/kg into the forearm vein of the dominant arm. The infusate was passed through a Millex-GS sterilizing filter (0.22 μm; Millipore Products Divisions, Bedford, Mass.) before the infusion. Blood samples were obtained from the superficial hand vein and from the deep forearm vein at 0, 1, 2, 5, 10, 15, 30, 45, 90, 150, 210, 270, 330, and 720 min. postinjection. During this time, the subjects were required to stay at the Clinical Research Center, although they were allowed to ambulate freely within their rooms. Free access to food and drink was allowed after the 330-min sample. After 720 min, the catheters were removed and the patients were allowed to go home. For the following three days, the subjects returned to the CRC each morning before eating for further blood sampling by percutaneous venous puncture at 1,440, 2,880, and 4,320 min postinjection. Urine was collected over 24 hour periods the day before and for three days after tracer infusion.
Blood was collected in heparinized syringes, transferred to tubes containing Na2 EDTA (15 mg/tube), and centrifuged. The plasma obtained was immediately placed on ice. An aliquot of the plasma was processed for determination of 3-methylhistidine concentration as well as the L-3-[methyl-^2 H3 ]-histidine:3-methylhistidine isotope enrichment. The remainder of the plasma was frozen at -70° C. The urine obtained was processed for the determination of creatinine both as a measure of the completeness of the collection (Pencharz, P. B. et al., "The effect of an energy-restricted diet on the protein metabolism of obese adolescents: nitrogen-balance and whole-body nitrogen turnover," Clin. Sci. (1980) 59:13-18), and for the estimation of lean body mass (Blackburn, G. L. et al., "Nutritional and metabolic assessment of hospitalized patients," J. Parenter. Enteral. Nutr. (1977) 1:11-22). […]

[3] = Safety and excretion of administered D3-3-methylhistidine; details: small quantities administered
[4] = in vivo; remark: listed apart in the source
[5] = adult human; cited from earlier work
[6] = rat; cited from earlier work

| Molecule | Exponential decay curve of tracer [1] | Decay of D3-3-methylhistidine:3-methylhistidine ratio in plasma [2] | Toxicity [3] | Urinary excretion [4] | Share of daily 3-methylhistidine excreted [5] | Form excreted in urine [6] |
| --- | --- | --- | --- | --- | --- | --- |
| [2H]C([2H])([2H])n1cnc(C[C@H](N)C(=O)O)c1 [D3-3-methylhistidine, 3-[^2 H3-methyl]-methylhistidine] | rapid decay over the first 2-3 hours, followed by a slower decay through 12 hours, and a steady state decay over the remainder of the study | rapid decrease in the D3- 3-methylhistidine:3-methylhistidine ratio during the first 5 hours followed by a slow linear (semilog plot) decay over the three days of blood sampling | non-toxic | quantitatively excreted in urine | – | – |
| N-acetyl-3-methylhistidine | – | – | – | – | less than 5% | major form excreted in the rat |
